Experimental data published in patent US20050054726A1, “Vaccine” (priority 2001, published 2005).

How the values were obtained:
iNOS = iNOS (Homo sapiens, UniProt P35228); settings: category per Alderton et al., Biochem J. (2001) 357, 593-615; cited from earlier work
IL-4 producing cells = test: ELISPOT of IL-4 (Th2) producing CD4+ T cells from lymph nodes; format: in vivo, mice; settings: combination of 1400W with pVAC1.OVA vs pVAC1.OVA + vehicle; FIG. 2
Procedure: (§1) Twenty four hours later, minipumps containing 1400W (delivering 10 mg/kg per hour), or sterile water (controls), were implanted subcutaneously into mice under anaesthesia. Mice were then immediately immunised by PMID with two cartridges of either pVAC1.0VA or empty vector (1 μg plasmid DNA/mouse).
(§2) Five days later, mice were killed by cervical dislocation and inguinal and periaortic lymph nodes were collected and prepared as for splenocytes (described above), except that the red blood cell lysis step was omitted. To measure the in vivo clonal expansion of CD4+ T cells induced by immunisation, the proportion of ovalbumin-specific T cells was assessed ex vivo in the lymph node cell preparations. Briefly, an aliquot of lymph node cells from each individual mouse was processed for flow cytometry analysis (Coulter XL) using KJ1.26 (0.2 μg, Caltag) and anti-CD4 (0.5 μg, Sigma).
(§3) Th CD4+ subsets were assessed by ELISPOT analyses of CD4+ T cells producing IFN-γ (Th1) and IL-4 (Th2). Briefly, lymph node cell suspension was aliquoted into ELISPOT plates previously coated with capture IFN-γ or IL-4 antibody and stimulated with ovalbumin cognate peptide.

[1] = tested on: ovalbumin-specific CD4+ T cells; test: In vivo clonal expansion of ovalbumin-specific CD4+ T cells after PMID immunisation (adoptive transfer model, flow cytometry KJ1+ CD4+); design: species or system mice
Procedure: as §1, §2

CD8+ T cells = test: CD8+ T cell-restricted IFN-γ / IL-2 ELISPOT assay of splenocytes after prime-boost PMID; format: in vivo, C57B1/6 mice
Procedure: Controls contained pVAC1 (0.5 μg plasmid DNA/cartridge) only.
Spleens were collected 12 days later for T cell assays.
The cytotoxic T cell response was assessed by CD8+ T cell-restricted IFN-γ ELISPOT assay of splenocytes. Mice were killed by cervical dislocation and spleens were collected into ice-cold PBS. […] After two washes in PBS to remove particulate matter the single cell suspension was aliquoted into ELISPOT plates previously coated with capture IFN-γ or IL-2 antibody and stimulated with CD8-restricted cognate peptide. After overnight culture, IFN-γ producing cells were visualised by application of anti-murine IFN-γ-biotin labelled antibody (Pharmingen) followed by streptavidin-conjugated alkaline phosphatase and quantitated using image analysis.

IFN-γ producing cells = test: ELISPOT of IFN-γ (Th1) producing CD4+ T cells from lymph nodes; format: in vivo, mice; settings: combination pVAC1.OVA + 1400W; FIG. 3
Procedure: as §1, §2, §3

Row | SMILES | selectivity category of iNOS inhibitor (iNOS) | number of IL-4 producing cells (IL-4 producing cells) | clonal expansion of CD4+ T cells ([1]; empty vector + 1400W vs empty vector + vehicle) | clonal expansion of CD4+ T cells ([1]; pVAC1.OVA + 1400W (minipump, 10 mg/kg per hour) vs pVAC1.OVA + vehicle, lymph nodes, five days after PMID, Figure one) | number of IFN-γ- or IL-2-producing CD8+ T cells in the spleens (CD8+ T cells; control plasmid (pVAC1) + 1400W vs vehicle) | number of IFN-γ- or IL-2-producing CD8+ T cells in the spleens (CD8+ T cells; pVAC1.OVAcyt + 1400W relative to pVAC1.OVAcyt + vehicle, 12 days after boost, FIG. 4) | increase in number of IFN-γ producing cells (IFN-γ producing cells)
1 | CC(=N)NCCCC[C@H](N)C(=O)O [L-NIL, reference compound] | partially selective (Inhibitors which have a 10-50-fold selectivity are regarded as partially selective inhibitors) | – | – | – | – | – | –
2 | CC(=N)NCCSCC[C@H](N)C(=O)O [GW274150, S-[2-(1-iminoethylamino)ethyl]-L-homocysteine] | highly selective (compounds of over 50-fold selectivity are regarded as highly selective) | – | – | – | – | – | –
3 | CC(=N)NCc1cccc(CN)c1 [1400W, N-[3-(aminomethyl)benzyl] acetamidine] | – | no effect to a modest almost 2 fold increase | No difference | substantial increase | No differences | twice | 2-4 times
